US4939175A, “Use of N,N-dimethyl-1-[1-(4-chlorophenyl)cyclobutyl]-3-methylbutylamine” (priority 1988, dated 1990)
Where two headings read alike, the source gives them in different places.

What was measured:
[1] = test system: depletion of dopamine induced by MPTP in mice whole brain; assay: animal or person; format: in vivo, SlC: ddy strain male mice; details: Mus musculus, po, 168 h, read-out: Percentage of the amount of dopamine in the treated group against the amount of dopamine in the non-treated group
[2] = test system: depletion of norepinephrine induced by 6-hydroxydopamine in rat heart; assay: Depletion of norepinephrine induced by 6-hydroxydopamine in rat heart; format: in vivo, Std: Wistar male rats; details: 6-hydroxydopamine 20 mg/kg i.p., control 20 ± 4, non-treatment 425 ± 49, **p < 0.01
Procedure: Effect of the test samples on the depletion of norepinephrine induced by 6-hydroxydopamine in rat heart.
The test sample was administered orally to Std: Wistar male rats and after 30 minutes, 6-hydroxydopamine (20 mg/kg) was injected intraperitoneally.
At 16 hours after injection of 6-hydroxydopamine, the rats were killed. The whole heart was rapidly removed and homogenized in 0.05M perchloric acid with isoproterenol (10 mg/ml) as an internal standard. The homogenate was centrifuged and then the amount of norepinephrine in the supernatant was determined by means of high performance liquid chromatography with electrochemical detection.
Desipramine was used as the reference drug and distilled water was used as control sample.

[3] = Acute toxicity, oral, mice; set-up: species or system SlC:ddy male mice; details: mouse, in vivo, read-out: Number of dead mice per 10 mice
Procedure: SlC:ddy male mice (10 heads/group) were used.
After the oral administration of the test smaple, desipramine was used as the test drug, to the mice, the number of the dead mice was counted at 0.5, 1, 2, 4, 18 and 24 hours respectively after the oral administration.

[4] = test system: re-uptake of ^3 H-dopamine; assay: Re-uptake of 3H-dopamine in vitro (synaptosomes, P2 fraction of whole brain); format: biochemical, Std: Wistar strain male rat; details: Experiment II, rat brain synaptosomes, 37° C., 20 minutes
Procedure: Effect of the test samples on the re-uptake of ^3 H-dopamine in vitro
P2 fraction was prepared from the whole brain of Std: Wistar strain male rat. […] The obtained mixture was incubated at 37° C. for 20 minutes and then subjected to the suction filtration with Whatman GF/B filter paper.
The obtained filter paper was put in a vial containing 10 ml of toluene type scintillator and its radioactivity was measured by means of liquid scintillation counter. The amount of the specific re-uptake of ^3 H-dopamine was obtained by subtracting the amount of re-uptake at 0° C. as blank.

[5] = Experiment I, 10 mg/kg oral, MPTP 50 mg/kg s.c., control 71 ± 11, *P < 0.05, **P < 0.01
[6] = Experiment I, 30 mg/kg oral, MPTP 50 mg/kg s.c., control 71 ± 11, *P < 0.05, **P < 0.01

Compound: CN(C)CCCN1c2ccccc2CCc2ccc(Cl)cc21 [Clomipramine, clomipramine]
- response vs control in vivo at 10 mg/kg [1]: 74 ± 13%
- response vs control in vivo at 30 mg/kg [1]: 74 ± 14%

Compound: CNCCCN1c2ccccc2CCc2ccccc21 [Desipramine, desipramine]
- response vs control in vivo at 10 mg/kg [1, 5]: 74 ± 15%
- response vs control in vivo at 30 mg/kg [1, 6]: 79 ± 18%
- Amount of Norepinephrine ([2]; 0.625 mg/kg oral): 35 ± 4 ng/g
- Amount of Norepinephrine ([2]; 1.25 mg/kg oral): 74 ± 26 ng/g
- Amount of Norepinephrine ([2]; 2.5 mg/kg oral): 211 ± 79 ng/g
- mortality at 0.5 h ([3]; 200 mg/kg oral): 0%
- mortality at 1 h ([3]; 200 mg/kg oral): 0%
- mortality at 2 h ([3]; 200 mg/kg oral): 0%
- mortality at 4 h ([3]; 200 mg/kg oral): 0%
- mortality at 18 h ([3]; 200 mg/kg oral): 0%
- mortality at 24 h ([3]; 200 mg/kg oral): 0%
- mortality at 0.5 h ([3]; 800 mg/kg oral): 100%
- mortality at 1 h ([3]; 800 mg/kg oral): 100%
- mortality at 2 h ([3]; 800 mg/kg oral): 100%
- mortality at 4 h ([3]; 800 mg/kg oral): 100%
- mortality at 18 h ([3]; 800 mg/kg oral): 100%
- mortality at 24 h ([3]; 800 mg/kg oral): 100%

Compound: CN(C)CC/C=C1\c2ccccc2CSc2ccccc21 [Dosulepin, dosulepin]
- response vs control in vivo at 10 mg/kg [1, 5]: 70 ± 13%
- response vs control in vivo at 30 mg/kg [1, 6]: 77 ± 12%

Compound: CN(C)CCCN1c2ccccc2CCc2ccccc21 [Imipramine, imipramine]
- IC50 [4]: 15 µM

Compound: CNCCCC12CCC(c3ccccc31)c1ccccc12 [Maprotiline, maprotiline]
- response vs control in vivo at 10 mg/kg [1]: 65 ± 17%
- response vs control in vivo at 30 mg/kg [1]: 74 ± 17%

Compound: CN[C@@H](C)Cc1ccccc1 [Methamphetamine, methamphetamine]
- response vs control in vivo at 3 mg/kg ([1]; Experiment I, 3 mg/kg oral, MPTP 50 mg/kg s.c., control 71 ± 11, *P < 0.05, **P < 0.01): 97 ± 14%
- response vs control in vivo at 3 mg/kg ([1]; Experiment II, 3 mg/kg oral, MPTP 50 mg/kg s.c., control 88 ± 20, *P < 0.05): 102 ± 21%
- response vs control in vivo at 3 mg/kg [1]: 91 ± 20%

Compound: CN1CCN2c3ccccc3Cc3ccccc3C2C1 (centres unmarked) [Mianserin, mianserin]
- response vs control in vivo at 10 mg/kg [1]: 72 ± 16%
- response vs control in vivo at 30 mg/kg [1]: 69 ± 8%
